Assay results reported in ChEMBL document CHEMBL5260810, “Inhibition of bromodomain-containing protein 9 for the prevention of epigenetically-defined drug resistance” (Bioorg Med Chem Lett, 2017).

Target: Adrenergic receptor alpha-1 (Rattus norvegicus) (UniProt P15823+P23944+P43140)
Test: Displacement of [3H]-prazosin from rat alpha1 adrenoceptor at 10 uM after 60 mins by scintillation counting analysis relative to control
Assay type: protein assay
Settings: not given

Compound | Activity
C/C=C/Cn1cc(-c2ccc(C(C)(C)O)cc2OC)c2cc[nH]c2c1=O | 7%

Target: Chromatin remodeling regulator CECR2 (Homo sapiens, UniProt Q9BXF3)
Test: Binding affinity to human partial length CECR2 (P423 to D543 residues) expressed in bacterial expression system by BROMOscan assay
Settings: not given

Chain of Chromatin remodeling regulator CECR2 (Q9BXF3 whole entry, the tested form may be a part): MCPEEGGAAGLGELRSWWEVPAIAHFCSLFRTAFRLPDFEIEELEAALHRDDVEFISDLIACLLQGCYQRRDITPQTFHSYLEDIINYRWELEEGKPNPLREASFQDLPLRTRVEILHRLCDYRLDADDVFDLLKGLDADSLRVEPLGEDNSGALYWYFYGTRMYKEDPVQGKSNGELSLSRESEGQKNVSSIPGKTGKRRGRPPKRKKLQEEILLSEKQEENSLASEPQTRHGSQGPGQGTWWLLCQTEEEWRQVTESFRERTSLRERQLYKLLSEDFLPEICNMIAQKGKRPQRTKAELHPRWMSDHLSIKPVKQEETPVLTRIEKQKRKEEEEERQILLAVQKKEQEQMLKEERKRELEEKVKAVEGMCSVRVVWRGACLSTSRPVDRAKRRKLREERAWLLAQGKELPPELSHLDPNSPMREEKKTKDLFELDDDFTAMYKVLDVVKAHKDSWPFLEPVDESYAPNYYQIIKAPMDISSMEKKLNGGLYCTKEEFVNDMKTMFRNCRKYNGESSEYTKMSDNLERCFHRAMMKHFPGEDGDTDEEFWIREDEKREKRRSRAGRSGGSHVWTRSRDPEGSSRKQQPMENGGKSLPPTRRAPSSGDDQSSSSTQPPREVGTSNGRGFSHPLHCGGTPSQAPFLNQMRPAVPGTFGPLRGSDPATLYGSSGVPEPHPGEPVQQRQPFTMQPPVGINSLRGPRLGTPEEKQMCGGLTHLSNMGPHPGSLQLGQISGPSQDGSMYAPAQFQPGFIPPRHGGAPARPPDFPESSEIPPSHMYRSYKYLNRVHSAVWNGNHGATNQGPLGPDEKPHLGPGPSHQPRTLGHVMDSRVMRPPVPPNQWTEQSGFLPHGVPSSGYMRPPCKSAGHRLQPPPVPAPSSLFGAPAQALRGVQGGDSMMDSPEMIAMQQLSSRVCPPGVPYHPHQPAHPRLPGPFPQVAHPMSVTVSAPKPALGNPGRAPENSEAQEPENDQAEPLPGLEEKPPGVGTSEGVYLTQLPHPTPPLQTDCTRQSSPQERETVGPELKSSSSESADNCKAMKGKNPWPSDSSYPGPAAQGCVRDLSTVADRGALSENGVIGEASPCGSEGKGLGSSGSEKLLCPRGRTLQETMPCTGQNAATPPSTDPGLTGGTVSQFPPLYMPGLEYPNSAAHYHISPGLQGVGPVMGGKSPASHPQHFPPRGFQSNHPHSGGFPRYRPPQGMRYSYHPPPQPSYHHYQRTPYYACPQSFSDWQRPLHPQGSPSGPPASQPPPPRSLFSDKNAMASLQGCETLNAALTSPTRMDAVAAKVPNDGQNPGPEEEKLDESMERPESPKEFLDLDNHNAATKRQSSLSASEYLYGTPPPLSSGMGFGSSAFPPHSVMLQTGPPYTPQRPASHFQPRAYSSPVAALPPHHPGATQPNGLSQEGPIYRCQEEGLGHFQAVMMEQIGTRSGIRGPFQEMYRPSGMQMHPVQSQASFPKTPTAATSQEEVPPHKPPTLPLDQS

Compound | Kd
C/C=C/Cn1cc(-c2ccc(C(C)(C)O)cc2OC)c2cc[nH]c2c1=O | > 10 µM

Target: CREB-binding protein (Homo sapiens, UniProt Q92793)
Test: Binding affinity to human partial length CREBBP (R1081 to G1197 residues) expressed in bacterial expression system by BROMOscan assay
Settings: not given

Chain of CREB-binding protein (Q92793 whole entry, the tested form may be a part): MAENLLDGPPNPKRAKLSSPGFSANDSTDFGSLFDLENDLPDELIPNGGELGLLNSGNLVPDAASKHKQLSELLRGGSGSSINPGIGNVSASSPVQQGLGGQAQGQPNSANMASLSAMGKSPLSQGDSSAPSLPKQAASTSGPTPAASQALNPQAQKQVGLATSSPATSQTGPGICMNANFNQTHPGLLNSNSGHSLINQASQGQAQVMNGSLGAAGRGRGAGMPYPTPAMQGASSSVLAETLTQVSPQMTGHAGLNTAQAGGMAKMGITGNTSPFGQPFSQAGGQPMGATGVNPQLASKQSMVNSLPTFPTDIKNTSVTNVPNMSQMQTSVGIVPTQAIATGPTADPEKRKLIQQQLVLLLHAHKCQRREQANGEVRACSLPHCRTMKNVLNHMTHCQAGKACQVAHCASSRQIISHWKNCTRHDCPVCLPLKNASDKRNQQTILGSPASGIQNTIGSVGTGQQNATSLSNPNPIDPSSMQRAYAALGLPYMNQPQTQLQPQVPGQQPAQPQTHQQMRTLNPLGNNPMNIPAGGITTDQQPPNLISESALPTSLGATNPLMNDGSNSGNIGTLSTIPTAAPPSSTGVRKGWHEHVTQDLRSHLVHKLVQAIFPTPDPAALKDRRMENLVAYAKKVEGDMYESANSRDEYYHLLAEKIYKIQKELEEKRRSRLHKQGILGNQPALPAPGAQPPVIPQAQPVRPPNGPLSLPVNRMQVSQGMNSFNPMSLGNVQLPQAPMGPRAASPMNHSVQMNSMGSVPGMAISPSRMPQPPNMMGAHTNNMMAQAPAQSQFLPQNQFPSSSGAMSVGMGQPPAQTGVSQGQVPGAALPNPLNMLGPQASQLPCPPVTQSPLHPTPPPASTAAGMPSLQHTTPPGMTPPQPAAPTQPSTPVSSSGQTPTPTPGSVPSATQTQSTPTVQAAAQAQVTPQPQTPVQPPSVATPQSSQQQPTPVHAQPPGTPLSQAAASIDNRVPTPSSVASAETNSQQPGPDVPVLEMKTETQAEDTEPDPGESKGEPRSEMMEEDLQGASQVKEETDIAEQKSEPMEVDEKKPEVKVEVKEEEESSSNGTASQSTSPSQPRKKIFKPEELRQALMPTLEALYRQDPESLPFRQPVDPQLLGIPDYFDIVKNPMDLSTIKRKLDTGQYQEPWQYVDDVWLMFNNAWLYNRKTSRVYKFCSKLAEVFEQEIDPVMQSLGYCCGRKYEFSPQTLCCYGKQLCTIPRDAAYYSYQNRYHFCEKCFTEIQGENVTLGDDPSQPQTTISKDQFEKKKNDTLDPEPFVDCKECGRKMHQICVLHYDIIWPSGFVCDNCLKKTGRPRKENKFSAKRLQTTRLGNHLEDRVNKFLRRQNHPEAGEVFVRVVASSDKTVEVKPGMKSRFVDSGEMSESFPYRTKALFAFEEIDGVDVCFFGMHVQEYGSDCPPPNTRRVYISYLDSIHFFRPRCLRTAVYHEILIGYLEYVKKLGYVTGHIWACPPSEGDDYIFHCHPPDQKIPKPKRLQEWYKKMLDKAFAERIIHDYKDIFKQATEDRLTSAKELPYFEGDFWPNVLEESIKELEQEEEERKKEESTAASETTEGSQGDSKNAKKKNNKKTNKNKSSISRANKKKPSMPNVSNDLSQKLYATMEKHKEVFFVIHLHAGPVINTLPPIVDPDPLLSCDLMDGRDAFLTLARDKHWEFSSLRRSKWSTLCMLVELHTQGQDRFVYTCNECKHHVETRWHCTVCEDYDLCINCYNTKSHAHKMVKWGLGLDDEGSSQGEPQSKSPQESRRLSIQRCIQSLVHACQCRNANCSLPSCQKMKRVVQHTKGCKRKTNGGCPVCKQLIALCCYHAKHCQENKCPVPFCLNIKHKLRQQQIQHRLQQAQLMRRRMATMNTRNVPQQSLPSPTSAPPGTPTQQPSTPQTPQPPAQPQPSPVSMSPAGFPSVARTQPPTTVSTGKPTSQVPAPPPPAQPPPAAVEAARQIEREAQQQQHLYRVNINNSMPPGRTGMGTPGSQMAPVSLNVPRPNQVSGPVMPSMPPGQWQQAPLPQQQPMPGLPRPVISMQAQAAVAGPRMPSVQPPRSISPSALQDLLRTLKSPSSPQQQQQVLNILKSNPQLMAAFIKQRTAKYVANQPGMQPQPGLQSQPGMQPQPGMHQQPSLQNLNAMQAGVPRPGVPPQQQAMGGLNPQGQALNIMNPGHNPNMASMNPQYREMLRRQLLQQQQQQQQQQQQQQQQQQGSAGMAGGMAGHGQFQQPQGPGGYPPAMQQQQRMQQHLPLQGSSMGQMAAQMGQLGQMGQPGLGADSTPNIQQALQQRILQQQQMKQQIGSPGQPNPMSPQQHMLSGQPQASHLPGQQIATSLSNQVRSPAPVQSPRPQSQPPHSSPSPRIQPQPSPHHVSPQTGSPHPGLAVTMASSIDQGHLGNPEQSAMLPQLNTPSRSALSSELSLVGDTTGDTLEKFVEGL

Compound | Kd
C/C=C/Cn1cc(-c2ccc(C(C)(C)O)cc2OC)c2cc[nH]c2c1=O | 3.5 µM

Test system: NCI-H23
Test: Cytotoxicity against human NCI-H23 cells measured after 8 days
Assay type: functional, cell-based
Settings: NCI-H23, 192 h

Compound | IC50
C/C=C/Cn1cc(-c2ccc(C(C)(C)O)cc2OC)c2cc[nH]c2c1=O | 20 µM

Test system: T47D
Test: Cytotoxicity against human T47D cells measured after 8 days
Assay type: functional, cell-based
Settings: 192 h

Compound | IC50
C/C=C/Cn1cc(-c2ccc(C(C)(C)O)cc2OC)c2cc[nH]c2c1=O | 20 µM

Test system: IGR-37 cell line
Test: Cytotoxicity against human IGR-37 cell line measured after 8 days
Assay type: functional, cell-based
Settings: IGR-37, 192 h

Compound | IC50
C/C=C/Cn1cc(-c2ccc(C(C)(C)O)cc2OC)c2cc[nH]c2c1=O | 20 µM

Test system: not listed separately
Test: Cytotoxicity against human OVTOKO cells measured after 8 days
Assay type: functional, cell-based
Settings: 192 h

Compound | IC50
C/C=C/Cn1cc(-c2ccc(C(C)(C)O)cc2OC)c2cc[nH]c2c1=O | 20 µM

Test system: not listed separately
Test: Cytotoxicity against human WSU-FSCCL cells measured after 8 days
Assay type: functional, cell-based
Settings: 192 h

Compound | IC50
C/C=C/Cn1cc(-c2ccc(C(C)(C)O)cc2OC)c2cc[nH]c2c1=O | 13.5 µM

Species: Homo sapiens
Test: Inhibition of JAK1alpha1 (unknown origin) at 1 uM relative to control
Settings: not given

Compound | inhibition
C/C=C/Cn1cc(-c2ccc(C(C)(C)O)cc2OC)c2cc[nH]c2c1=O | -4%

Target: Bromodomain-containing protein 2 (Homo sapiens, UniProt P25440)
Test: Binding affinity to human partial length BRD2 bromodomain 2 isoform 1 (E348 to D455 residues) expressed in bacterial expression system by BROMOscan assay
Settings: not given

Chain of Bromodomain-containing protein 2 (P25440 whole entry, the tested form may be a part, canonical isoform): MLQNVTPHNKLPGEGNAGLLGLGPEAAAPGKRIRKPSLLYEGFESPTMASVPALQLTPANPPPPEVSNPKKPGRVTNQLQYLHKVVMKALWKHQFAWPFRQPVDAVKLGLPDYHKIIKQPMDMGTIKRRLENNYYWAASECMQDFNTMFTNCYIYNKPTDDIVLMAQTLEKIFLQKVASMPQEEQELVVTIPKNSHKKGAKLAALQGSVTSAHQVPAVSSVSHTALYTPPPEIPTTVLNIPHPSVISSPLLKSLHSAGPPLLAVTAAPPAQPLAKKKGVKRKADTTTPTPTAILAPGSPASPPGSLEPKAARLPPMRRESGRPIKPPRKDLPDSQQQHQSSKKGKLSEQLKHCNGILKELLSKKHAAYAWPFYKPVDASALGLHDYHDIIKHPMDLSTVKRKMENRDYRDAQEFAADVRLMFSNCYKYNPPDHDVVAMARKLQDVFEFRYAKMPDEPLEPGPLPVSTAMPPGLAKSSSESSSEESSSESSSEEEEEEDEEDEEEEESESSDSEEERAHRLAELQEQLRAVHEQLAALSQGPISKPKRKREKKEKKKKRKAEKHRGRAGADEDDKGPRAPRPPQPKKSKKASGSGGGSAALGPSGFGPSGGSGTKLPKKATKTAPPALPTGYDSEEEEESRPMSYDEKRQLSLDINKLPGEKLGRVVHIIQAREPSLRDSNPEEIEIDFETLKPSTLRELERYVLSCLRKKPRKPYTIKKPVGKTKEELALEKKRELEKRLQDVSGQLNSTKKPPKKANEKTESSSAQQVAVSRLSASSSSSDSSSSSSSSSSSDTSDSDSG

Compound | Kd
C/C=C/Cn1cc(-c2ccc(C(C)(C)O)cc2OC)c2cc[nH]c2c1=O | 3.3 µM

Test system: DAN-G
Test: Cytotoxicity against human DAN-G cells measured after 8 days
Assay type: functional, cell-based
Settings: 192 h

Compound | IC50
C/C=C/Cn1cc(-c2ccc(C(C)(C)O)cc2OC)c2cc[nH]c2c1=O | 20 µM

Test system: not listed separately
Test: Cytotoxicity against human NCI-H2595 cells measured after 8 days
Assay type: functional, cell-based
Settings: NCI-H2595, 192 h

Compound | IC50
C/C=C/Cn1cc(-c2ccc(C(C)(C)O)cc2OC)c2cc[nH]c2c1=O | 20 µM

Test system: NCI-H520
Test: Cytotoxicity against human NCI-H520 cells measured after 8 days
Assay type: functional, cell-based
Settings: NCI-H520, 192 h

Compound | IC50
C/C=C/Cn1cc(-c2ccc(C(C)(C)O)cc2OC)c2cc[nH]c2c1=O | 20 µM

Test system: not listed separately
Test: Cytotoxicity against human Ci-1 cells measured after 8 days
Assay type: functional, cell-based
Settings: Ci-1, 192 h

Compound | IC50
C/C=C/Cn1cc(-c2ccc(C(C)(C)O)cc2OC)c2cc[nH]c2c1=O | 15 µM

Test system: HCC95
Test: Cytotoxicity against human HCC95 cells measured after 8 days
Assay type: functional, cell-based
Settings: HCC95, 192 h

Compound | IC50
C/C=C/Cn1cc(-c2ccc(C(C)(C)O)cc2OC)c2cc[nH]c2c1=O | 20 µM

Species: Rattus norvegicus
Test: Displacement of [125I]alpha-dendrotoxin from rat brain voltage-gated K channel at 10 uM after 60 mins by scintillation counting analysis relative to control
Settings: not given

Compound | Activity
C/C=C/Cn1cc(-c2ccc(C(C)(C)O)cc2OC)c2cc[nH]c2c1=O | -1%

Test system: NCI-H1155
Test: Cytotoxicity against human NCI-H1155 cells measured after 8 days
Assay type: functional, cell-based
Settings: NCI-H1155, 192 h

Compound | IC50
C/C=C/Cn1cc(-c2ccc(C(C)(C)O)cc2OC)c2cc[nH]c2c1=O | 20 µM

Test system: not listed separately
Test: Cytotoxicity against human SK-MEL-23 cells measured after 8 days
Assay type: functional, cell-based
Settings: SK-MEL-23, 192 h

Compound | IC50
C/C=C/Cn1cc(-c2ccc(C(C)(C)O)cc2OC)c2cc[nH]c2c1=O | 20 µM

Test system: not listed separately
Test: Cytotoxicity against human OCUM-1 cells measured after 8 days
Assay type: functional, cell-based
Settings: OCUM1, 192 h

Compound | IC50
C/C=C/Cn1cc(-c2ccc(C(C)(C)O)cc2OC)c2cc[nH]c2c1=O | 20 µM

Test system: WSUDLCL2
Test: Cytotoxicity against human WSUDLCL2 cells measured after 8 days
Assay type: functional, cell-based
Settings: WSUDLCL2, 192 h

Compound | IC50
C/C=C/Cn1cc(-c2ccc(C(C)(C)O)cc2OC)c2cc[nH]c2c1=O | 7.32 µM

Test system: not listed separately
Test: Cytotoxicity against human NCI-H1869 cells measured after 8 days
Assay type: functional, cell-based
Settings: NCI-H1869, 192 h

Compound | IC50
C/C=C/Cn1cc(-c2ccc(C(C)(C)O)cc2OC)c2cc[nH]c2c1=O | 20 µM

Target: T1, Muscle, skeletal receptor tyrosine-protein kinase (Homo sapiens) (UniProt O15146)
T1 sequence (whole entry): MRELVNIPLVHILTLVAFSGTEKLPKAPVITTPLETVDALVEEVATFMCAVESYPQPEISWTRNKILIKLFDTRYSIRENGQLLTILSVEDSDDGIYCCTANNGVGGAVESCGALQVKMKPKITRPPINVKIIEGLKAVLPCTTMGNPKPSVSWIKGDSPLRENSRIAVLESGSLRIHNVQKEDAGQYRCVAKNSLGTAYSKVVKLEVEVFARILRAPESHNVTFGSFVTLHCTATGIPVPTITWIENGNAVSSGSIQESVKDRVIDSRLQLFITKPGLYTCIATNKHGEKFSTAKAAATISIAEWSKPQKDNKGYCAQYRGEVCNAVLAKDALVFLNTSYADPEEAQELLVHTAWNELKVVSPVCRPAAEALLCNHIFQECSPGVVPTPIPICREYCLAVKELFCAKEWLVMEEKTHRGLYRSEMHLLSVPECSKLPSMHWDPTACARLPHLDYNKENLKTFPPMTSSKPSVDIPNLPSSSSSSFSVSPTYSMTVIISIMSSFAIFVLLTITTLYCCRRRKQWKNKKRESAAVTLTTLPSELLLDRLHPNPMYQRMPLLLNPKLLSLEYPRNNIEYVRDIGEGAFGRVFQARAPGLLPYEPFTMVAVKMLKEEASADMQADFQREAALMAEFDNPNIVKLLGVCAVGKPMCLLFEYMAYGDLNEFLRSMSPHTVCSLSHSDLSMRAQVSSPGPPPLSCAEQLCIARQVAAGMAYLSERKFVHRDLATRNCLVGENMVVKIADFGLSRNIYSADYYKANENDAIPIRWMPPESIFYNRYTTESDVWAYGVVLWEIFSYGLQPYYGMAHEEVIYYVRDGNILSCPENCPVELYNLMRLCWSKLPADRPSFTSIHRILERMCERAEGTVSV
Test: Inhibition of MuSK (unknown origin) at 1 uM relative to control
Settings: not given

Compound | inhibition
C/C=C/Cn1cc(-c2ccc(C(C)(C)O)cc2OC)c2cc[nH]c2c1=O | 1.5%

Test system: PA-1
Test: Cytotoxicity against human PA-1 cells measured after 8 days
Assay type: functional, cell-based
Settings: PA-1, 192 h

Compound | IC50
C/C=C/Cn1cc(-c2ccc(C(C)(C)O)cc2OC)c2cc[nH]c2c1=O | 16.4 µM

Test system: HEY
Test: Cytotoxicity against human HEY cells measured after 8 days
Assay type: functional, cell-based
Settings: 192 h

Compound | IC50
C/C=C/Cn1cc(-c2ccc(C(C)(C)O)cc2OC)c2cc[nH]c2c1=O | 20 µM

Test system: BT-549
Test: Cytotoxicity against human BT-549 cells measured after 8 days
Assay type: functional, cell-based
Settings: BT-549, 192 h

Compound | IC50
C/C=C/Cn1cc(-c2ccc(C(C)(C)O)cc2OC)c2cc[nH]c2c1=O | 12.2 µM

Test system: NCI-H441
Test: Cytotoxicity against human NCI-H441 cells measured after 8 days
Assay type: functional, cell-based
Settings: NCI-H441, 192 h

Compound | IC50
C/C=C/Cn1cc(-c2ccc(C(C)(C)O)cc2OC)c2cc[nH]c2c1=O | 20 µM

Test system: HCC1806
Test: Cytotoxicity against human HCC1806 cells measured after 8 days
Assay type: functional, cell-based
Settings: HCC1806, 192 h

Compound | IC50
C/C=C/Cn1cc(-c2ccc(C(C)(C)O)cc2OC)c2cc[nH]c2c1=O | 20 µM

Test system: LoVo
Test: Cytotoxicity against human LoVo cells measured after 8 days
Assay type: functional, cell-based
Settings: 192 h

Compound | IC50
C/C=C/Cn1cc(-c2ccc(C(C)(C)O)cc2OC)c2cc[nH]c2c1=O | 20 µM

Test system: KARPAS-422
Test: Cytotoxicity against human KARPAS-422 cells measured after 8 days
Assay type: functional, cell-based
Settings: KARPAS-422, 192 h

Compound | IC50
C/C=C/Cn1cc(-c2ccc(C(C)(C)O)cc2OC)c2cc[nH]c2c1=O | 20 µM

Test system: NUGC-4
Test: Cytotoxicity against human NUGC-4 cells measured after 8 days
Assay type: functional, cell-based
Settings: NUGC-4, 192 h

Compound | IC50
C/C=C/Cn1cc(-c2ccc(C(C)(C)O)cc2OC)c2cc[nH]c2c1=O | 20 µM

Test system: HCC4006
Test: Cytotoxicity against human HCC4006 cells measured after 8 days
Assay type: functional, cell-based
Settings: HCC4006, 192 h

Compound | IC50
C/C=C/Cn1cc(-c2ccc(C(C)(C)O)cc2OC)c2cc[nH]c2c1=O | 20 µM

Test system: not listed separately
Test: Cytotoxicity against human NCI-H2373 cells measured after 8 days
Assay type: functional, cell-based
Settings: NCI-H2373, 192 h

Compound | IC50
C/C=C/Cn1cc(-c2ccc(C(C)(C)O)cc2OC)c2cc[nH]c2c1=O | 20 µM

Test system: CAL-120
Test: Cytotoxicity against human CAL-120 cells measured after 8 days
Assay type: functional, cell-based
Settings: CAL-120, 192 h

Compound | IC50
C/C=C/Cn1cc(-c2ccc(C(C)(C)O)cc2OC)c2cc[nH]c2c1=O | 20 µM

Test system: MX1
Test: Cytotoxicity against human MX1 cells measured after 8 days
Assay type: functional, cell-based
Settings: MX1, 192 h

Compound | IC50
C/C=C/Cn1cc(-c2ccc(C(C)(C)O)cc2OC)c2cc[nH]c2c1=O | 20 µM

Test system: not listed separately
Test: Cytotoxicity against human 501A cells measured after 8 days
Assay type: functional, cell-based
Settings: 192 h

Compound | IC50
C/C=C/Cn1cc(-c2ccc(C(C)(C)O)cc2OC)c2cc[nH]c2c1=O | 20 µM

Test system: not listed separately
Test: Cytotoxicity against human PL-21 cells measured after 8 days
Assay type: functional, cell-based
Settings: PL-21, 192 h

Compound | IC50
C/C=C/Cn1cc(-c2ccc(C(C)(C)O)cc2OC)c2cc[nH]c2c1=O | 20 µM

Test system: not listed separately
Test: Cytotoxicity against human GP2d cells measured after 8 days
Assay type: functional, cell-based
Settings: 192 h

Compound | IC50
C/C=C/Cn1cc(-c2ccc(C(C)(C)O)cc2OC)c2cc[nH]c2c1=O | 20 µM
